Data from patent US20220281848A1, “PYRAZOLE-SUBSTITUTED PYRROLIDINONES AS HERBICIDES” (FMC Corporation, priority 2019, published 2022).

Tested on: plants
Experiment: Test D pre-emergence, other plants of Tables D1 and D3
Assay type: in vivo
Conditions: preemergent, 20 DAA
Description: A formulation containing 50 g/L of the test chemical was prepared by dissolving the active ingredient in a mixture of organic solvents and emulsifier, details of which are provided in the table. This formulation was then mixed with a small, variable amount of acetone to aid dissolution, before addition of a 0.2% v/v aqueous solution of an adjuvant, as the aqueous diluent, to form an aqueous spray solution which contains a predetermined concentration of the active ingredient.
This aqueous spray solution was then sprayed onto plants including maize and wheat that had been seed treated with a herbicide safener, after one day's cultivation (for pre-emergence) or after about 12 days' cultivation (for post-emergence). The plants were grown from seeds sown in standard soil, placed in a glasshouse under controlled conditions (at 24/18° C. or 20/16° C., day/night; 16 h light; 65% humidity). After spray application the plants were then grown in a glasshouse under the same conditions and watered twice daily. After 15 d for post-emergence and 20 DAA for pre-emergence the test was evaluated (100=total damage to plant; 0=no damage to plant).

SMILES: CCn1nc([C@H]2CN(C)C(=O)[C@@H]2C(=O)Nc2cccc(F)c2F)c2c(F)cccc21 [Compound 7]
- damage to plant (100=total damage to plant; 0=no damage to plant), ABUTH (rate 15): 0
- damage to plant (100=total damage to plant; 0=no damage to plant), ABUTH (rate 30): 0
- damage to plant (100=total damage to plant; 0=no damage to plant), ABUTH (rate 60): 0
- damage to plant (100=total damage to plant; 0=no damage to plant), ABUTH (rate 130): 0
- damage to plant (100=total damage to plant; 0=no damage to plant), ABUTH (rate 250): 0
- damage to plant (100=total damage to plant; 0=no damage to plant), ABUTH (rate 500): 10
- damage to plant (100=total damage to plant; 0=no damage to plant), AMARE (rate 15): 0
- damage to plant (100=total damage to plant; 0=no damage to plant), AMARE (rate 30): 0
- damage to plant (100=total damage to plant; 0=no damage to plant), AMARE (rate 60): 0
- damage to plant (100=total damage to plant; 0=no damage to plant), AMARE (rate 130): 0
- damage to plant (100=total damage to plant; 0=no damage to plant), AMARE (rate 250): 0
- damage to plant (100=total damage to plant; 0=no damage to plant), AMARE (rate 500): 0
- damage to plant (100=total damage to plant; 0=no damage to plant), BIDPI (rate 15): 0
- damage to plant (100=total damage to plant; 0=no damage to plant), BIDPI (rate 30): 0
- damage to plant (100=total damage to plant; 0=no damage to plant), BIDPI (rate 60): 0
- damage to plant (100=total damage to plant; 0=no damage to plant), BIDPI (rate 130): 0
- damage to plant (100=total damage to plant; 0=no damage to plant), BIDPI (rate 250): 0
- damage to plant (100=total damage to plant; 0=no damage to plant), BIDPI (rate 500): 0
- damage to plant (100=total damage to plant; 0=no damage to plant), BRAPL (rate 15): 0
- damage to plant (100=total damage to plant; 0=no damage to plant), BRAPL (rate 30): 60
- damage to plant (100=total damage to plant; 0=no damage to plant), BRAPL (rate 60): 80
- damage to plant (100=total damage to plant; 0=no damage to plant), BRAPL (rate 130): 80
- damage to plant (100=total damage to plant; 0=no damage to plant), BRAPL (rate 250): 90
- damage to plant (100=total damage to plant; 0=no damage to plant), BRAPL (rate 500): 100
- damage to plant (100=total damage to plant; 0=no damage to plant), CYPES (rate 15): 0
- damage to plant (100=total damage to plant; 0=no damage to plant), CYPES (rate 30): 0
- damage to plant (100=total damage to plant; 0=no damage to plant), CYPES (rate 60): 0
- damage to plant (100=total damage to plant; 0=no damage to plant), CYPES (rate 130): 0
- damage to plant (100=total damage to plant; 0=no damage to plant), CYPES (rate 250): 0
- damage to plant (100=total damage to plant; 0=no damage to plant), CYPES (rate 500): 20
- damage to plant (100=total damage to plant; 0=no damage to plant), DIGSA (rate 15): 0
- damage to plant (100=total damage to plant; 0=no damage to plant), DIGSA (rate 30): 80
- damage to plant (100=total damage to plant; 0=no damage to plant), DIGSA (rate 60): 90
- damage to plant (100=total damage to plant; 0=no damage to plant), DIGSA (rate 130): 100
- damage to plant (100=total damage to plant; 0=no damage to plant), DIGSA (rate 250): 100
- damage to plant (100=total damage to plant; 0=no damage to plant), DIGSA (rate 500): 100
- damage to plant (100=total damage to plant; 0=no damage to plant), ECHCG (rate 15): 0
- damage to plant (100=total damage to plant; 0=no damage to plant), ECHCG (rate 30): 90
- damage to plant (100=total damage to plant; 0=no damage to plant), ECHCG (rate 60): 90
- damage to plant (100=total damage to plant; 0=no damage to plant), ECHCG (rate 130): 100
- damage to plant (100=total damage to plant; 0=no damage to plant), ECHCG (rate 250): 100
- damage to plant (100=total damage to plant; 0=no damage to plant), ECHCG (rate 500): 100
- damage to plant (100=total damage to plant; 0=no damage to plant), ELEIN (rate 15): 0
- damage to plant (100=total damage to plant; 0=no damage to plant), ELEIN (rate 30): 0
- damage to plant (100=total damage to plant; 0=no damage to plant), ELEIN (rate 60): 10
- damage to plant (100=total damage to plant; 0=no damage to plant), ELEIN (rate 130): 60
- damage to plant (100=total damage to plant; 0=no damage to plant), ELEIN (rate 250): 50
- damage to plant (100=total damage to plant; 0=no damage to plant), ELEIN (rate 500): 70
- damage to plant (100=total damage to plant; 0=no damage to plant), EPHHL (rate 15): 0
- damage to plant (100=total damage to plant; 0=no damage to plant), EPHHL (rate 30): 0
- damage to plant (100=total damage to plant; 0=no damage to plant), EPHHL (rate 60): 0
- damage to plant (100=total damage to plant; 0=no damage to plant), EPHHL (rate 250): 10
- damage to plant (100=total damage to plant; 0=no damage to plant), EPHHL (rate 500): 40
- damage to plant (100=total damage to plant; 0=no damage to plant), GLXMA (rate 15): 0
- damage to plant (100=total damage to plant; 0=no damage to plant), GLXMA (rate 30): 0
- damage to plant (100=total damage to plant; 0=no damage to plant), GLXMA (rate 60): 0
- damage to plant (100=total damage to plant; 0=no damage to plant), GLXMA (rate 130): 0
- damage to plant (100=total damage to plant; 0=no damage to plant), GLXMA (rate 250): 0
- damage to plant (100=total damage to plant; 0=no damage to plant), GLXMA (rate 500): 0
- damage to plant (100=total damage to plant; 0=no damage to plant), IPOHE (rate 15): 0
- damage to plant (100=total damage to plant; 0=no damage to plant), IPOHE (rate 30): 0
- damage to plant (100=total damage to plant; 0=no damage to plant), IPOHE (rate 60): 0
- damage to plant (100=total damage to plant; 0=no damage to plant), IPOHE (rate 130): 0
- damage to plant (100=total damage to plant; 0=no damage to plant), IPOHE (rate 250): 0
- damage to plant (100=total damage to plant; 0=no damage to plant), IPOHE (rate 500): 0
- damage to plant (100=total damage to plant; 0=no damage to plant), ORYSA (rate 15): 0
- damage to plant (100=total damage to plant; 0=no damage to plant), ORYSA (rate 30): 0
- damage to plant (100=total damage to plant; 0=no damage to plant), ORYSA (rate 60): 0
- damage to plant (100=total damage to plant; 0=no damage to plant), ORYSA (rate 130): 0
- damage to plant (100=total damage to plant; 0=no damage to plant), ORYSA (rate 250): 0
- damage to plant (100=total damage to plant; 0=no damage to plant), ORYSA (rate 500): 0
- damage to plant (100=total damage to plant; 0=no damage to plant), PANMI (rate 15): 0
- damage to plant (100=total damage to plant; 0=no damage to plant), PANMI (rate 30): 0
- damage to plant (100=total damage to plant; 0=no damage to plant), PANMI (rate 60): 0
- damage to plant (100=total damage to plant; 0=no damage to plant), PANMI (rate 130): 0
- damage to plant (100=total damage to plant; 0=no damage to plant), PANMI (rate 250): 0
- damage to plant (100=total damage to plant; 0=no damage to plant), PANMI (rate 500): 20
- damage to plant (100=total damage to plant; 0=no damage to plant), SETFA (rate 15): 0
- damage to plant (100=total damage to plant; 0=no damage to plant), SETFA (rate 30): 80
- damage to plant (100=total damage to plant; 0=no damage to plant), SETFA (rate 60): 80
- damage to plant (100=total damage to plant; 0=no damage to plant), SETFA (rate 130): 90
- damage to plant (100=total damage to plant; 0=no damage to plant), SETFA (rate 250): 90
- damage to plant (100=total damage to plant; 0=no damage to plant), SETFA (rate 500): 100
- damage to plant (100=total damage to plant; 0=no damage to plant), SIDSP (rate 15): 0
- damage to plant (100=total damage to plant; 0=no damage to plant), SIDSP (rate 30): 0
- damage to plant (100=total damage to plant; 0=no damage to plant), SIDSP (rate 60): 0
- damage to plant (100=total damage to plant; 0=no damage to plant), SIDSP (rate 130): 0
- damage to plant (100=total damage to plant; 0=no damage to plant), SIDSP (rate 250): 0
- damage to plant (100=total damage to plant; 0=no damage to plant), SIDSP (rate 500): 10
- damage to plant (100=total damage to plant; 0=no damage to plant), SORVU (rate 15): 0
- damage to plant (100=total damage to plant; 0=no damage to plant), SORVU (rate 30): 0
- damage to plant (100=total damage to plant; 0=no damage to plant), SORVU (rate 60): 0
